How the values were obtained:
[1] = test system: EMT-6 mammary carcinomas; assay: Biodistribution (boron concentrations in tissues) in mice bearing EMT-6 carcinomas; format: in vivo, BALB/c mice; settings: for Average boron concentration, Blood / Average boron concentration, Brain / Average boron concentration, Feces / Average boron concentration, Heart / Average boron concentration, Kidneys / Average boron concentration, Liver / Average boron concentration, Lungs / Average boron concentration, Skin (pinna) / Average boron concentration, Spleen / Average boron concentration, Tumor: 3 i.p. injections over 8 hours
Method: BALB/c mice bearing subcutaneously implanted EMT-6 mammary carcinomas implanted on the dorsal thorax were given a total dose of 105 milligrams porphyrin compound V per kilogram body weight (23.7 mg B/kg). At one and two days after the last injection, mice were euthanized, and tumor, blood, brain, and liver were removed for boron analyses. The blood was first analyzed for hematologic parameters that indicate toxicity before it was analyzed for boron.
Similar to Example 8, Compound VII was given, to tumor-bearing mice except at a slightly higher total dose of 143 mg/kg body weight in 3 i.p. injections given over a period of 8 hours.

[2] = Weight changes and hematologic parameters in mice; format: in vivo, BALB/c mice
[3] = 143 mg/kg (30 mg B/kg), 1 day after last injection
[4] = 143 mg/kg (30 mg B/kg), 2 days after last injection
[5] = 105 mg/kg (23.7 mg B/kg), 1 day after last injection
[6] = 105 mg/kg (23.7 mg B/kg), 2 days after last injection

copper (II) 5,15-dibromo-10,20-bis(3-[o-carboranylmethoxy]phenyl)porphyrin [Porphyrin compound VII]
Average boron concentration, Blood [1, 3]: 105 ± 20 μg B/g | Average boron concentration, Brain [1, 3]: 1.9 ± 0.5 μg B/g | Average boron concentration, Feces [1, 3]: 11.2 ± 2.3 μg B/g | Average boron concentration, Heart [1, 3]: 20.4 ± 4.6 μg B/g | Average boron concentration, Kidneys [1, 3]: 38.7 ± 7.0 μg B/g | Average boron concentration, Liver [1, 3]: 183 ± 19 μg B/g | Average boron concentration, Lungs [1, 3]: 35.8 ± 3.7 μg B/g | Average boron concentration, Skin (pinna) [1, 3]: 9.2 ± 1.8 μg B/g | Average boron concentration, Spleen [1, 3]: 107 ± 11 μg B/g | Average boron concentration, Tumor [1, 3]: 67.1 ± 8.5 μg B/g | Average boron concentration, Blood [1, 4]: 12.1 ± 9.7 μg B/g | Average boron concentration, Brain [1, 4]: 0.1 ± 0.2 μg B/g | Average boron concentration, Feces [1, 4]: 4.9 ± 0.6 μg B/g | Average boron concentration, Heart [1, 4]: 9.4 ± 1.1 μg B/g | Average boron concentration, Kidneys [1, 4]: 13.0 ± 3.6 μg B/g | Average boron concentration, Liver [1, 4]: 263 ± 34 μg B/g | Average boron concentration, Lungs [1, 4]: 17.8 ± 6.2 μg B/g | Average boron concentration, Skin (pinna) [1, 4]: 7.7 ± 1.7 μg B/g | Average boron concentration, Spleen [1, 4]: 160 ± 15 μg B/g | Average boron concentration, Tumor [1, 4]: 76.9 ± 14.1 μg B/g | % Weight change [2, 3]: −0.3 ± 1.4% | Platelet count [2, 3]: 1461 ± 229 m/m^3 | White blood count [2, 3]: 8.8 ± 1.3 m/m^3 | % Weight change [2, 4]: 0.2 ± 2.2% | Platelet count [2, 4]: 790 ± 227 m/m^3 | White blood count [2, 4]: 11.8 ± 1.8 m/m^3 | toxicity associated with the porphyrin ([2]; 143 mg/kg dose): little if any toxicity

Copper (II) 5,15-dinitro-10,20-bis(3-[o-carboranylmethoxy]phenyl)porphyrin [Porphyrin compound V]
Average boron concentration, Blood [1, 5]: 34.6 ± 26.9 μg B/g | Average boron concentration, Brain [1, 5]: 0.5 ± 0.4 μg B/g | Average boron concentration, Heart [1, 5]: 9.1 ± 3.8 μg B/g | Average boron concentration, Kidneys [1, 5]: 12.7 ± 6.9 μg B/g | Average boron concentration, Liver [1, 5]: 145 ± 18 μg B/g | Average boron concentration, Skin (pinna) [1, 5]: 3.6 ± 13.0 μg B/g | Average boron concentration, Spleen [1, 5]: 76.1 ± 8.6 μg B/g | Average boron concentration, Tumor ([1]; 105 mg/kg (23.7 mg B/kg), 1 day after last injection, wet tissue): 39.2 ± 14.4 μg B/g | Average boron concentration, Blood [1, 6]: 1.5 ± 0.4 μg B/g | Average boron concentration, Brain [1, 6]: 0.1 ± 0.1 μg B/g | Average boron concentration, Feces [1, 6]: 15.2 ± 20.8 μg B/g | Average boron concentration, Heart [1, 6]: 7.5 ± 0.6 μg B/g | Average boron concentration, Kidneys [1, 6]: 7.1 ± 0.5 μg B/g | Average boron concentration, Liver [1, 6]: 226 ± 25 μg B/g | Average boron concentration, Lungs [1, 6]: 8.5 ± 3.0 μg B/g | Average boron concentration, Skin (pinna) [1, 6]: 4.8 ± 1.6 μg B/g | Average boron concentration, Spleen [1, 6]: 158 ± 19 μg B/g | Average boron concentration, Tumor [1, 6]: 49.8 ± 12.9 μg B/g | amount of boron delivered to the tumor ([1]; porphyrin dose ~100 mg/kg (24 mg/kg B)): ~50 ppm | percentage of injected dose in tumor per gram of wet tissue ([1]; ~100 mg/kg (24 mg/kg B), EMT-6 tumor model): ~10.5 %/g | % Weight change [2, 5]: −0.8 ± 1.8% | Platelet count [2, 5]: 1349 ± 294 m/m^3 | White blood count [2, 5]: 9.9 ± 2.6 m/m^3 | % Weight change [2, 6]: −1.7 ± 1.7% | Platelet count [2, 6]: 515 ± 160 m/m^3 | White blood count [2, 6]: 11.8 ± 1.8 m/m^3
